According to ChEMBL document CHEMBL3112450, “Synthesis and in vitro antitumor evaluation of primary amine substituted quinazoline linked benzimidazole” (Bioorg Med Chem Lett, 2014):

Assays:
Format in all cases: functional
[1] = Cytotoxicity against human OVCAR5 cells assessed as growth inhibition at 10 uM after 48 hrs by SRB assay; settings: OVCAR-5, 48 h, read-out: GI
SNB-19 = test: Cytotoxicity against human SNB19 cells assessed as growth inhibition at 10 uM after 48 hrs by SRB assay; settings: SNB-19, 48 h, read-out: GI
NCI-H226 = test: Cytotoxicity against human NCI-H226 cells assessed as growth inhibition at 10 uM after 48 hrs by SRB assay; settings: NCI-H226, 48 h, read-out: GI
[2] = Cytotoxicity against human EKVX cells assessed as growth inhibition at 10 uM after 48 hrs by SRB assay; settings: read-out: GI
[3] = Cytotoxicity against human Hs578T cells assessed as growth inhibition at 10 uM after 48 hrs by SRB assay; settings: Hs-578T, read-out: GI
DU-145 = test: Cytotoxicity against human DU145 cells assessed as growth inhibition at 10 uM after 48 hrs by SRB assay; settings: DU-145, 48 h, read-out: GI
CAKI-1 = test: Cytotoxicity against human Caki1 cells assessed as growth inhibition at 10 uM after 48 hrs by SRB assay; settings: CAKI-1, 48 h, read-out: GI
SK-MEL-2 = test: Cytotoxicity against human SK-MEL-2 cells assessed as growth inhibition at 10 uM after 48 hrs by SRB assay; settings: SK-MEL-2, 48 h, read-out: GI
MDA-MB-435 = test: Cytotoxicity against human MDA-MB-435 cells assessed as growth inhibition at 10 uM after 48 hrs by SRB assay; settings: MDA-MB-435, 48 h, read-out: GI
LOX IMVI = test: Cytotoxicity against human LOXIMVI cells assessed as growth inhibition at 10 uM after 48 hrs by SRB assay; settings: read-out: GI
U-251 = test: Cytotoxicity against human U251 cells assessed as growth inhibition at 10 uM after 48 hrs by SRB assay; settings: U-251, 48 h, read-out: GI
SNB-75 = test: Cytotoxicity against human SNB75 cells assessed as growth inhibition at 10 uM after 48 hrs by SRB assay; settings: SNB-75, 48 h, read-out: GI
SF-295 = test: Cytotoxicity against human SF295 cells assessed as growth inhibition at 10 uM after 48 hrs by SRB assay; settings: SF-295, 48 h, read-out: GI
NCI-H460 = test: Cytotoxicity against human NCI-H460 cells assessed as growth inhibition at 10 uM after 48 hrs by SRB assay; settings: NCI-H460, 48 h, read-out: GI
HL-60(TB) = test: Cytotoxicity against human HL-60(TB) cells assessed as growth inhibition at 10 uM after 48 hrs by SRB assay; settings: HL-60, 48 h, read-out: GI

Row | Structure (SMILES) | inhibition of growth at 10 µM [1] | inhibition of growth at 10 µM (SNB-19) | inhibition of growth at 10 µM (NCI-H226) | inhibition of growth at 10 µM [2] | inhibition of growth at 10 µM [3] | inhibition of growth at 10 µM (DU-145) | inhibition of growth at 10 µM (CAKI-1) | inhibition of growth at 10 µM (SK-MEL-2) | inhibition of growth at 10 µM (MDA-MB-435) | inhibition of growth at 10 µM (LOX IMVI) | inhibition of growth at 10 µM (U-251) | inhibition of growth at 10 µM (SNB-75) | inhibition of growth at 10 µM (SF-295) | inhibition of growth at 10 µM (NCI-H460) | inhibition of growth at 10 µM (HL-60(TB))
1 | C=CCn1c(C)nc2ccc(Nc3nc(Nc4ccc5nc(C)n(CC=C)c5c4)c4ccccc4n3)cc21 | 70% | 50% | 30% | 90% | – | – | – | – | – | – | – | – | – | – | –
2 | C=CCn1c(C)nc2ccc(Nc3nc(Nc4ccc(F)cc4)nc4ccccc34)cc21 | – | – | – | – | 40% | 30% | 40% | 40% | 40% | 50% | 40% | 40% | 50% | 30% | 40%
